Numbers after ± are expanded uncertainties.
Assay: mn = molality of the nth substance listed, in mol/kg
Conditions: 101 kPa, Liquid, Alternating current cell with electrodes

[Cl-].[Cl-].[Mg+2] [magnesium chloride] + O
electrical conductivity [S/m]
Conditions | 278.15 K | 283.15 K | 298.15 K | 308.15 K | 318.15 K | 343.15 K | 363.15 K
m1 = 0.000119 | 0.001861 ± 7e-06 | 0.002134 ± 9e-06 | 0.002989 ± 1.2e-05 | 0.003553 ± 1.4e-05 | 0.004209 ± 1.7e-05 | 0.006086 ± 2.4e-05 | 0.00764 ± 3e-05
m1 = 0.000984 | 0.01481 ± 6e-05 | 0.017 ± 0.0001 | 0.02432 ± 0.0001 | 0.02937 ± 0.00012 | 0.03478 ± 0.00014 | 0.0501 ± 0.0002 | 0.06265 ± 0.00025
m1 = 0.01137 | 0.1537 ± 0.0006 | 0.176 ± 0.0007 | 0.2503 ± 0.001 | 0.302 ± 0.0012 | 0.3534 ± 0.0014 | 0.5068 ± 0.002 | 0.6347 ± 0.0025
m1 = 0.09942 | 1.1 ± 0.0044 | 1.256 ± 0.005 | 1.772 ± 0.0071 | 2.137 ± 0.0085 | 2.515 ± 0.01 | 3.575 ± 0.014 | 4.424 ± 0.018
m1 = 0.3609 | 3.449 ± 0.014 | 3.927 ± 0.016 | 5.491 ± 0.022 | 6.606 ± 0.026 | 7.753 ± 0.031 | 10.94 ± 0.044 | 13.6 ± 0.054

O=S(=O)([O-])[O-].[Cs+].[Cs+] [cesium sulfate] + O
electrical conductivity [S/m]
Conditions | 278.15 K | 283.15 K | 298.15 K | 308.15 K | 318.15 K | 343.15 K | 363.15 K
m1 = 0.000101 | 0.001962 ± 8e-06 | 0.002237 ± 9e-06 | 0.003069 ± 1.2e-05 | 0.003625 ± 1.5e-05 | 0.004233 ± 1.7e-05 | 0.006348 ± 2.5e-05 | 0.0078 ± 3e-05
m1 = 0.00105 | 0.01932 ± 8e-05 | 0.02195 ± 9e-05 | 0.0306 ± 0.0001 | 0.03666 ± 0.00015 | 0.04304 ± 0.00017 | 0.06181 ± 0.00025 | 0.07641 ± 0.00031
m1 = 0.01021 | 0.1676 ± 0.0007 | 0.1906 ± 0.0008 | 0.2654 ± 0.0011 | 0.3173 ± 0.0013 | 0.3716 ± 0.0015 | 0.5216 ± 0.0021 | 0.6438 ± 0.0026
m1 = 0.1047 | 1.358 ± 0.0054 | 1.539 ± 0.0062 | 2.124 ± 0.0085 | 2.529 ± 0.01 | 2.958 ± 0.012 | 4.094 ± 0.016 | 5.022 ± 0.02
m1 = 0.1836 | 2.24 ± 0.009 | 2.528 ± 0.01 | 3.468 ± 0.014 | 4.119 ± 0.017 | 4.792 ± 0.019 | 6.59 ± 0.026 | 8 ± 0.032
m1 = 0.3588 | 4.083 ± 0.016 | 4.58 ± 0.018 | 6.204 ± 0.025 | 7.32 ± 0.029 | 8.463 ± 0.034 | 11.58 ± 0.046 | 13.73 ± 0.055

— the NIST ThermoML archive (doi:10.1021/je101012n)
